Test system: β-catenin-TCF-mediated reporter transcription activity in Colo 205 cells
Assay: Colo 205 reporter assay (TCF/LEF luciferase)
Type: cell-based
Details: Homo sapiens, COLO 205, 5 h, Colo 205 TCF/LEF luciferase reporter, five hours after addition of compound; read-out: TCF reporter Colo205 IC50
How it was run: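 Luciferase signal from a TCF/LEF-driven reporter, stably integrated in Colo 205 colon cancer cells, was measured 5 h after compound addition.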

Row | IC50 [nM] | Structure (SMILES)
1 | < 300 | Cc1nc(NCc2cnn(Cc3ccc(F)c(F)c3F)c2)nc2c1N(C)C(=O)[C@H](C)N2C [Compound 17, (7S)-4,5,7,8-tetramethyl-2-(((1-(2,3,4-trifluorobenzyl)-1H-pyrazol-4-yl)methyl)amino)-7,8-dihydropteridin-6(5H)-one]
2 | 300 to 1000 | Cc1nc(N[C@H]2C[C@@H](Cn3cncc3C(F)(F)F)C2)nc2c1NC(=O)[C@H](C(C)C)N2C [Compound 679, (S)-7-isopropyl-4,8-dimethyl-2-((cis-3-((5-(trifluoromethyl)-1H-imidazol-1-yl)methyl)cyclobutyl)amino)-7,8-dihydropteridin-6(5H)-one]
3 | ≥ 5000 | Cc1nc(N[C@H]2C[C@H](Oc3ncc(F)cn3)C2)nc2c1N(C)C(=O)[C@H](C)N2C [Compound 274, (S)-2-((trans-3-((5-fluoropyrimidin-2-yl)oxy)cyclobutyl)amino)-4,5,7,8-tetramethyl-7,8-dihydropteridin-6(5H)-one]
4 | < 300 | Cc1nc(N[C@H]2C[C@@H](Cn3nc(Cl)c(C#N)n3)C2)nc2c1NC(=O)[C@H](C(C)C)N2C [Compound 695, 5-chloro-2-((cis-3-(((S)-7-isopropyl-4,8-dimethyl-6-oxo-5,6,7,8-tetrahydropteridin-2-yl)amino)cyclobutyl)methyl)-2H-1,2,3-triazole-4-carbonitrile]
5 | < 300 | C#CC[C@H]1C(=O)N(C)c2cnc(NCc3cnn(Cc4ccc(F)cc4)c3)nc2N1C [Compound 26, (7S)-2-(((1-(4-fluorobenzyl)-1H-pyrazol-4-yl)methyl)amino)-5,8-dimethyl-7-(prop-2-yn-1-yl)-7,8-dihydropteridin-6(5H)-one]
6 | < 300 | Cc1nc(NCc2cnn(Cc3c(F)cc(F)cc3F)c2)nc2c1N(C)C(=O)[C@H](C)N2C [Compound 18, (7S)-4,5,7,8-tetramethyl-2-(((1-(2,4,6-trifluorobenzyl)-1H-pyrazol-4-yl)methyl)amino)-7,8-dihydropteridin-6(5H)-one]
7 | 300 to 1000 | C[C@H]1C(=O)Nc2cnc(N[C@H]3C[C@H](OCc4ccc(F)c(F)c4)C3)nc2N1C [Compound 265, (7S)-2-((trans-3-((3,4-difluorobenzyl)oxy)cyclobutyl)amino)-7,8-dimethyl-7,8-dihydropteridin-6(5H)-one]
8 | 300 to 1000 | Cc1nc(NCc2cnn(Cc3ccnc(N(C)C)c3)c2)nc2c1NC(=O)[C@H](C)N2C [Compound 12, (7S)-2-(((1-((2-(dimethylamino)pyridin-4-yl)methyl)-1H-pyrazol-4-yl)methyl)amino)-4,7,8-trimethyl-7,8-dihydropteridin-6(5H)-one]
9 | < 300 | Cc1nc(NCc2cnn(Cc3ccc(Cl)nc3)c2)nc2c1NC(=O)[C@H](CC(C)C)N2C [Compound 550, (S)-2-(((1-((6-chloropyridin-3-yl)methyl)-1H-pyrazol-4-yl)methyl)amino)-7-isobutyl-4,8-dimethyl-7,8-dihydropteridin-6(5H)-one]
10 | < 300 | Cc1nc(NCc2cnn(Cc3ccc4c(c3)OCO4)c2)nc2c1NC(=O)[C@H](C)N2C [Compound 181, (7S)-2-(((1-(benzo[d][1,3]dioxol-5-ylmethyl)-1H-pyrazol-4-yl)methyl)amino)-4,7,8-trimethyl-7,8-dihydropteridin-6(5H)-one]
11 | 300 to 1000 | Cc1nc(NC2CN(C(=O)c3csc(C(F)(F)F)n3)C2)nc2c1NC(=O)[C@H](C(C)C)N2C [Compound 613, (S)-7-isopropyl-4,8-dimethyl-2-((1-(2-(trifluoromethyl)thiazole-4-carbonyl)azetidin-3-yl)amino)-7,8-dihydropteridin-6(5H)-one]
12 | ≥ 5000 | Cc1nc(NC2CN(C(=O)[C@@H](C)c3ccccc3)C2)nc2c1NC(=O)[C@H](C(C)C)N2C [Compound 641, (S)-7-isopropyl-4,8-dimethyl-2-((1-((S)-2-phenylpropanoyl)azetidin-3-yl)amino)-7,8-dihydropteridin-6(5H)-one]

From patent US20230312587A1, “PTERIDINONE COMPOUNDS AND USES THEREOF” (Vertex Pharmaceutical Incorporated, priority 2018, published 2023)
